Test results: patent US20260151354A1, “SOLID DISPERSION OF CURCUMIN DERIVATIVE METHOD FOR PREPARING SAME, AND USE THEREOF” (WENZHOU MEDICAL UNIVERSITY, priority 2022, published 2026)
Like-named read-outs stand apart in the source and are kept apart here.

Legend:
[1] = Solubility of C66 in solvents (Table 1); format: physicochemical
[2] = Permeability of C66 (previous studies); format: in vitro ADME
[3] = Saturated concentration of C66 in SDS and Tween 80 solutions; format: physicochemical
Source text: The inventors also investigated the solubility of C66 in sodium dodecyl sulfate (SDS) and Tween 80 (T80). According to the recommended usage of surfactants specified in Handbook of Pharmaceutical Excipients, and recommendations from the National Medical Products Administration of China and the U.S. Food and Drug Administration (FDA), a proportion of surfactants in the solution is 1%-3%.

[4] = Solubility of C66 in buffer solutions of different pH (37° C. shaker 24 hours, HPLC); format: physicochemical; conditions: buffer solutions pH 1.0, 1.2, 2.0, 4.0, 5.0, 6.0, 6.8, 7.4
Description: In addition, the inventors also prepared a series of buffer solutions (pH 1.0, pH 1.2, pH 2.0, pH 4.0, pH 5.0, pH 6.0, pH 6.8, and pH 7.4) according to the recommended conditions of the Pharmacopoeia, to investigate the solubility of C66 under different pH conditions. Excess C66 powder was added to each of the solutions to obtain a mixture, the mixture was shaken in a 37° C. shaker for 24 hours. The C66 concentration was then measured using high-performance liquid chromatography.

[5] = Cumulative dissolution of pulverized C66 substance in surfactant aqueous solutions; format: physicochemical; conditions: 60 min
Description: None of them reached the quality control requirement that the cumulative dissolution rate could be equal to or greater than 85% in 30 min-60 min.

[6] = Related substances after acceleration storage; format: physicochemical; conditions: C66 substance Batch C66-S-ZS-03-09, comparison
Description: (§1) Acceleration test conditions: aluminum foil bag packaging, sealed, 40±2° C., 75%±5% RH, sample placement;
(§2) Samples: Solid dispersions obtained in Examples 1, 2, and 3.

[7] = Content determination after acceleration storage; format: physicochemical; conditions: C66 substance Batch C66-S-ZS-03-09, comparison
Description: as §1, §2

[8] = male, Beagle, dog, in vivo
Description: (§3) 6 male Beagle dogs (with a weight of 8.00-8.62 kg per dog) that passed the quarantine were selected and divided into 2 groups by weight according to a completely random method, that is, oral administration group, and intravenous injection group, with 3 dogs in each group, and single gavage administration were given. The dogs were subjected to fasting but not water deprivation 12 hours before administration, and were provided with food 4 hours after administration, with free access to water. For the oral administration group, 1% sodium carboxymethyl cellulose (CMC-Na) was mixed with C66 substance to prepare a 0.6 mg/mL suspension for gavage. For the intravenous injection group, a required amount of C66 substance was weighed and dissolved in a solution containing 5% DMSO+10% polyethylene glycol-15 hydroxystearate+85% (20% 2-hydroxypropyl-β-cyclodextrin) to prepare a 1 mg/mL clear solution. Blood samples were collected at different time points after administration, and a concentration of C66 in the blood samples were detected by a liquid chromatograph mass spectrometer to obtain a drug concentration-time curve.
(§4) Plasma samples were analyzed using an AB Sciex 5500 (LC-MS/MS) with an electrospray ionization source (ESI), and monitored with a multiple reaction monitoring (MRM) scanning method in a positive ion mode. A gradient elution was performed with 0.1% formic acid aqueous solution-acetonitrile as a mobile phase. Unknown samples were subjected to protein precipitation using methanol before injection, with a flow rate of 0.3 mL/min. Chromatographic column: Kinetex® 1.7 μm, XB-C18 2.1*100 mm. Guard column: Phenomenex UHPLC C18 2.1 mm. A linear range of C66 was 1.000-288.0 ng/ml, with a lower limit of quantitation of 1.000 ng/mL.
(§5) The dogs were subjected to fasting but not water deprivation 12 hours before administration, and were provided with food 4 hours after administration, with free access to water.
(§6) For the oral administration groups, the blood collection time points were before administration and 15 min, 30 min, 45 min, 1 hour, 2 hours, 3 hours, 4 hours, 6 hours, 8 hours, 10 hours and 24 hours after administration, and 0.5-1.0 mL of blood were collected from a small saphenous vein outside a hind limb or a cephalic vein inside a forelimb, and placed into a heparin sodium anticoagulation tube. For the Intravenous injection group, the blood collection time points were before administration and 5 min, 15 min, 30 min, 45 min, 1 hour, 2 hours, 3 hours, 4 hours, 8 hours, 10 hours and 24 hours after administration, and 0.5-1.0 mL of blood were collected from a small saphenous vein outside a hind limb or a cephalic vein inside a forelimb, and placed into a heparin sodium anticoagulation tube. Main pharmacokinetic parameters such as AUC0-t, AUC0-∞, and t1/2 were calculated using a Phoenix WinNonlin 8.0 software.
(§7) Oral administration group 1: A required amount of C66 substance was weighed, and an appropriate amount of 1% CMC-Na was added to prepare a 0.6 mg/mL suspension.
(§8) Oral administration group 2: A required amount of C66 solid dispersion was weighed, and an appropriate amount of 1% CMC-Na was added to prepare a 0.6 mg/mL suspension.
(§9) Intravenous injection group: A required amount of C66 substance was weighed and dissolved in a solution containing 5% DMSO+10% polyethylene glycol-15 hydroxystearate+85% (20% 2-hydroxypropyl-β-cyclodextrin) to prepare a 1 mg/mL clear solution.

in vivo = conditions: male, Beagle, dog
Description: as §3, §4, §5, §6, §7, §8, §9

**Q.** For `O=C1/C(=C/c2ccccc2C(F)(F)F)CCC/C1=C\c1ccccc1C(F)(F)F` [Example C66], which “Solubility of C66” value ([1]; Ethanol (95%)) is on record?
**A.** Slightly soluble

**Q.** And the “Solubility of C66” value ([1]; Hydrochloric acid solution with a pH of 1.0)?
**A.** Almost insoluble or insoluble

**Q.** And the “Solubility of C66” value ([1]; Phosphate buffer with a pH of 6.8)?
**A.** Almost insoluble or insoluble

**Q.** And the “Solubility of C66” value ([1]; Purified water)?
**A.** Almost insoluble or insoluble

**Q.** What about the water solubility ([1]; previous studies) of the same compound?
**A.** poor

**Q.** What about the permeability [2] of the same compound?
**A.** good

**Q.** What about the “Saturated concentration of C66” value ([3]; 1% SDS solution) of the same compound?
**A.** 5.158 µg/mL

**Q.** And the “Saturated concentration of C66” value ([3]; 1% Tween 80 solution)?
**A.** 1.410 µg/mL

**Q.** And the “Saturated concentration of C66” value ([3]; 2% SDS solution)?
**A.** 9.046 µg/mL

**Q.** And the “Saturated concentration of C66” value ([3]; 2% Tween 80 solution)?
**A.** 3.385 µg/mL

**Q.** What about the “Saturated concentration of C66” value ([3]; 3% SDS solution) of the same compound?
**A.** 22.484 µg/mL

**Q.** What about the “Saturated concentration of C66” value ([3]; 3% Tween 80 solution) of the same compound?
**A.** 15.231 µg/mL

**Q.** And the “solubility under different pH conditions” value [4]?
**A.** not dissolved

**Q.** What about the cumulative dissolution rate ([5]; 3% sodium dodecyl sulfate aqueous solution, particle size D0.9<15 μm) of the same compound?
**A.** 25.3%

**Q.** And the “maximum cumulative dissolution rate” value ([5]; different concentrations of CTAB aqueous solution)?
**A.** 18.9%

**Q.** And the cumulative dissolution rate ([5]; different concentrations of triton X-100 aqueous solution)?
**A.** 26.3%

**Q.** What about the Isomer [6] of the same compound?
**A.** 0.038%

**Q.** And the “Other largest unknown impurities” value [6]?
**A.** 0.025%

**Q.** And the “Process impurities 1” value [6]?
**A.** 0.188%

**Q.** What about the “Process impurities 2” value [6] of the same compound?
**A.** 0.385%

**Q.** What about the Content [7] of the same compound?
**A.** 98.5%

**Q.** And the “Absolute bioavailability (AUC0-t)” value [8]?
**A.** 7.16%

**Q.** And the “ratio of AUC0-t to AUC0-∞” value ([8]; iv, 1 mg/kg)?
**A.** 99%

**Q.** What about the “Relative bioavailability (AUC0-t)” value ([8]; po, 3 mg/kg) of the same compound?
**A.** 15.02%

**Q.** What about the “ratio of AUC0-t to AUC0-∞” value ([8]; po, 3 mg/kg) of the same compound?
**A.** 88%

**Q.** And the AUC(0-t) (in vivo; iv, 1 mg/kg, AUC0-t)?
**A.** 162 ng·h/mL

**Q.** And the AUC(0-t) (in vivo; iv, 1 mg/kg, AUC0-t Mean)?
**A.** 148 ng·h/mL

**Q.** What about the AUC(0-inf) (in vivo; iv, 1 mg/kg, AUC0-∞) of the same compound?
**A.** 163 ng·h/mL

**Q.** And the AUC(0-inf) (in vivo; iv, 1 mg/kg, AUC0-∞ Mean)?
**A.** 149 ng·h/mL

**Q.** And the Cmax (in vivo; iv, 1 mg/kg, Cmax)?
**A.** 334 ng/mL

**Q.** What about the Cmax (in vivo; iv, 1 mg/kg, Cmax Mean) of the same compound?
**A.** 348 ng/mL

**Q.** And the MRT last (in vivo; iv, 1 mg/kg, MRTlast)?
**A.** 0.684 h

**Q.** And the MRT last (in vivo; iv, 1 mg/kg, MRTlast Mean)?
**A.** 0.598 h

**Q.** And the Tmax (in vivo; iv, 1 mg/kg, Tmax)?
**A.** 0.083 h

**Q.** And the Tmax (in vivo; iv, 1 mg/kg, Tmax Mean)?
**A.** 0.083 h

**Q.** What about the half-life (in vivo; iv, 1 mg/kg, half-life (t1/2)) of the same compound?
**A.** ~30 min

**Q.** What about the half-life (in vivo; iv, 1 mg/kg, t1/2) of the same compound?
**A.** 33.7 min

**Q.** What about the half-life (in vivo; iv, 1 mg/kg, t1/2 Mean) of the same compound?
**A.** 30.4 min

**Q.** And the AUC(0-t) (in vivo; po, 3 mg/kg, AUC0-t Mean)?
**A.** 31.8 ng·h/mL

**Q.** What about the AUC(0-inf) (in vivo; po, 3 mg/kg, AUC0-∞ Mean) of the same compound?
**A.** 35.8 ng·h/mL

**Q.** And the Cmax (in vivo; po, 3 mg/kg, Cmax Mean)?
**A.** 15.8 ng/mL

**Q.** What about the MRT last (in vivo; po, 3 mg/kg, MRTlast) of the same compound?
**A.** 1.89 h

**Q.** And the MRT last (in vivo; po, 3 mg/kg, MRTlast Mean)?
**A.** 1.71 h

**Q.** And the Tmax (in vivo; po, 3 mg/kg, Tmax)?
**A.** 2 h

**Q.** And the Tmax (in vivo; po, 3 mg/kg, Tmax Mean)?
**A.** 1.5 h

**Q.** And the half-life (in vivo; po, 3 mg/kg, half-life (t1/2))?
**A.** ~60 min

**Q.** What about the half-life (in vivo; po, 3 mg/kg, t1/2 Mean) of the same compound?
**A.** 53.5 min

**Q.** What about the Tmax (in vivo; po, 3 mg/kg, time to reach peak concentration (Tmax)) of the same compound?
**A.** ~1 h
